In patent US20170007561A1, “CONTEMPORANEOUS, HETEROGENEOUSLY-ORIENTED, MULTI-TARGETED THERAPEUTIC MODIFICATION AND/OR MODULATION OF DISEASE BY ADMINISTRATION OF SULFUR-CONTAINING, AMINO ACID-SPECIFIC SMALL MOLECULES” (BioNumerik Pharmaceuticals, Inc., priority 2014, published 2017):
Entries after “also recorded” stand apart in the source; their conditions may differ.

How the values were obtained:
[1] = target: T1, recombinant human farnesyltransferase (Homo sapiens, UniProt P49354+P49356); assay: Farnesyltransferase Dansyl-GCVLS fluorescence assay; assay type: biochemical
T1 construct: purchased Abcam
T1 sequence (P49356 whole entry, one chain of several): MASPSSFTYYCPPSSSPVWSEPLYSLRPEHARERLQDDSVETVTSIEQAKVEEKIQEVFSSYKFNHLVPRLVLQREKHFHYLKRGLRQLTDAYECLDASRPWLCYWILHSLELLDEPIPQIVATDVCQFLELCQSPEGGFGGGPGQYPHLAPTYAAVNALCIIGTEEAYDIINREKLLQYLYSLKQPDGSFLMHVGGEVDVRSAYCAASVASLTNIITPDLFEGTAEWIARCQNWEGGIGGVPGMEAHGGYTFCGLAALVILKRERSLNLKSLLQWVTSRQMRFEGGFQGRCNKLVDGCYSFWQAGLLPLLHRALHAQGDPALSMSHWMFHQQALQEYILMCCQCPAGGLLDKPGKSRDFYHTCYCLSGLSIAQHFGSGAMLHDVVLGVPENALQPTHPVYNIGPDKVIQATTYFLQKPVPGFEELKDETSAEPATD
Protocol: Tavocept-inhibited human farnesyltransferase-mediated transfer of farnesylpyrophosphate to the cysteine residue in a danyslated peptide substrate of sequence glycine-cysteine-valine-leucine-serine (designated—Dansyl-GCVLS) in vitro. See, FIG. 79. The assay reactions contained 25 nM recombinant human farnesyltransferase (Abcam), 10 μM farnesylpyrophosphate (SigmaAldrich), 3 μM Dansyl-GCVLS (NeoBioScience) in Tris buffer (50 mM, pH 7.5) containing 5 mM MgCl2, 10 μM ZnCl2, and 0.2% octyl-β-D-glucopyranoside. Total assay volumes were 50 μL and the reactions were initiated by the addition of FTase (5 μL of 250 nM stock was added to 45 μL of assay components listed above). The excitation wavelength was 340 nm (a 340 nm filter with 25 nm bandpass) and the emission wavelength was […] (505 nm filter with 20 nm bandpass) and the assay temperature was 25° C. Progress curves of the transfer of the farnesylpyrophosphate to the Dansyl-GCVLS substrate are shown in FIG. 79, Panel A and relative rates of the progress curve were determined and are shown in FIG. 79, Panel B.

Aminopeptidase N = Aminopeptidase N (Homo sapiens, UniProt P15144); assay: Aminopeptidase N activity (summary Table 27); assay type: biochemical
Sequence of Aminopeptidase N (P15144 whole entry, the tested form may be a part): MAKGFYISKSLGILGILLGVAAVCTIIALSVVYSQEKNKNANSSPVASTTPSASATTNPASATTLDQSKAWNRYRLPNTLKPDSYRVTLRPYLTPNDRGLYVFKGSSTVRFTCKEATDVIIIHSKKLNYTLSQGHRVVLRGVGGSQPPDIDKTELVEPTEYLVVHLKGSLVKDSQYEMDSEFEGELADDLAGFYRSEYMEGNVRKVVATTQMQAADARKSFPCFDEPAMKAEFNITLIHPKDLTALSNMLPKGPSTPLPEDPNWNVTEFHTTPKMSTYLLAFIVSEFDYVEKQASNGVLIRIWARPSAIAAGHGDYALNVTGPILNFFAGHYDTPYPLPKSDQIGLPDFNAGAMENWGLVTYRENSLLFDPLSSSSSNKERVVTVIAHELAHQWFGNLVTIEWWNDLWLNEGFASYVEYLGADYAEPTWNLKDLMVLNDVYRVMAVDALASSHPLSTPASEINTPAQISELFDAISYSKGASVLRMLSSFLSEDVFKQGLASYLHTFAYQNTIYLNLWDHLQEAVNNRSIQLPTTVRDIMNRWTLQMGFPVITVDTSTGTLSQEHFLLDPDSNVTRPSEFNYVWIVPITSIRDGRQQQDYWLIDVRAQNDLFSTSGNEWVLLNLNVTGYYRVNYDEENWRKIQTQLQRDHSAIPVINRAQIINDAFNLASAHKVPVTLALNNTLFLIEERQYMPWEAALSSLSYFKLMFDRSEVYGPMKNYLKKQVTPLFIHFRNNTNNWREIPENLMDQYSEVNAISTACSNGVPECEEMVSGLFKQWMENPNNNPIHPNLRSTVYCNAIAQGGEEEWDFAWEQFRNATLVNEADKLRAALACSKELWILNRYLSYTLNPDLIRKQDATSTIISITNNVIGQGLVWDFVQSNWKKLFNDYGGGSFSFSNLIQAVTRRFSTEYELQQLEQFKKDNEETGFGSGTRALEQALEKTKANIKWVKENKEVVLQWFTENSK

Recombinant human ERCC1 = target: T2, Recombinant human ERCC1 (Homo sapiens, UniProt P07992); assay: LC-MS of trypsin-digested ERCC1 after incubation with Tavocept; assay type: binding; conditions: 20 mM Tavocept, LC-MS of tryptic fragments
T2 construct: 6xHis (N); purchased Creative BioMart; host or cells: E. coli
T2 sequence (P07992 whole entry, the tested form may be a part): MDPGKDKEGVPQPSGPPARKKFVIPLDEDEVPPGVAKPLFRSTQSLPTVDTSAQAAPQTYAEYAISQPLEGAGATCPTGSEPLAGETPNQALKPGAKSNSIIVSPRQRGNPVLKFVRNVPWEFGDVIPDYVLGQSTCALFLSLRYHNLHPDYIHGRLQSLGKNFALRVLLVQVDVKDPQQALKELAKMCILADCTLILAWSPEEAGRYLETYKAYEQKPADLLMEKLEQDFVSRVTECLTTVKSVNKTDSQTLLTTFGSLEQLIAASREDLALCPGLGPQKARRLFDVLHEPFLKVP
Protocol: Recombinant human ERCC1 (1 mg; 27.8 nanomoles, Creative BioMart) was reduced using a vast excess of dithiothreitol (DTT, 100 μl of a 500 mM stock) in ammonium bicarbonate (40 mM, pH 8.0) at 37° C. for 75 minutes (total reaction volume was 900 μL). […] Each 800 μl reaction was then chromatographed over a NAP10 column. This step removed unreacted Tavocept and was used for the buffer control simply to ensure that both samples received the same handling/manipulation during the course of the experiment. The elution volume from each NAP10 column was 1.2 mL. […] Trypsin digestion reactions were incubated for 1 hour at 30° C. and then for 17 hours at room temperature (23° C.). Following the Trypsin digest, the samples were lyophilized to dryness overnight and then resuspended in a volume of approximately 100 μL water and analyzed using LC-MS. A Symmetry C18 HPLC column (Waters, Franklin, Mass.; 3.5 μm; 4.6 mm×75 mm) and a Waters Alliance liquid chromatography system (Waters 2695, Franklin, Mass., USA) coupled to a Micromass single quadropole mass detector (Micromass ZMD, Manchester, UK) were used to analyze fragments from trypsin-digested human ERCC1. The mobile phase contained 0.1% of formic acid throughout the run and the flow rate was 0.35 mL/min. […]

[2] = target: T3, Anaplastic Lymphoma Kinase (ALK) (Homo sapiens, UniProt Q9UM73); assay: ALK kinase activity (summary Table 27); assay type: biochemical
T3 construct: illustrates the kinase domain of ALK (residues 1058-1623) which was used in these experiments; 6xHis (N); purchased Millipore lot 32944U-H (catalogue number not given); host or cells: baculovirus / Sf21
T3 sequence (Q9UM73 1058-1620 limits assumed): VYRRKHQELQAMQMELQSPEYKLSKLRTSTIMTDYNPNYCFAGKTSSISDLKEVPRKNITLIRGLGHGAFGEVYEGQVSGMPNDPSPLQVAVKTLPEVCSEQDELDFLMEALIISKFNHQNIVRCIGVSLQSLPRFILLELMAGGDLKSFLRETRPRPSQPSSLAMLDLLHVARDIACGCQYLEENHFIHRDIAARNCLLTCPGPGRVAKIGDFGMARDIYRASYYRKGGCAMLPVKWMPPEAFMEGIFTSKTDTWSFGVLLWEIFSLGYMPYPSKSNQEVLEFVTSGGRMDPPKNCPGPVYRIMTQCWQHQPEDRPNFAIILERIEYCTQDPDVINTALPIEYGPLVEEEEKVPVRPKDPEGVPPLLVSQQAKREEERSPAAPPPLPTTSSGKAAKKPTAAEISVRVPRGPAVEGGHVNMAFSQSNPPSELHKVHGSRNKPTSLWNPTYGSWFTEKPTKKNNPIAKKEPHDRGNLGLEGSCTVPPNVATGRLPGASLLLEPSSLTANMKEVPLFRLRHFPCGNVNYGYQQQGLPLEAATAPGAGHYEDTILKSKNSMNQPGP

O=S(=O)([O-])CCSSCCS(=O)(=O)[O-].[Na+].[Na+] [Tavocept, disodium 2,2′-dithio-bis-ethane sulfonate]
Inhibition of farnesylation [1]: inhibits farnesylation in a concentration-dependent manner | Cellular consequence of BNP7787-modification and/or modulation: aminopeptidase N (Aminopeptidase N): can inhibit γ-glutamyltranspeptidase and aminopeptidase N enzyme | ERCC1 cysteine residue carrying Tavocept-derived mesna adduct (Recombinant human ERCC1): Cys238; also recorded: Cys274 | Cellular consequence of BNP7787-modification and/or modulation: ALK [2]: BNP7787 disrupts/blocks ATP binding site resulting in inhibition
